Assay type in all cases: in vivo
The test system of assay [1] is Alopecurus myosuroides (ALOMY). Briefly: Test 1 glasshouse assay, post-emergence herbicidal activity. The settings on record: 312 h, after 13 days, read-out: Percentage phytotoxicity ALOMY. The method, boiled down: (§1)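 Plants sprayed 8 days after sowing with active ingredient in acetone/water (50:50) containing 0.5% Tween 20, grown in glasshouse at 24/16°C day/night, 14 h light, 65% humidity. Phytotoxicity scored visually after 13 days as percentage damage (100% = total damage; 0% = none).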

For assay [2], the system named is Echinochloa crus-galli (ECHCG). The assay is described as above. The settings on record: 312 h, after 13 days, read-out: Percentage phytotoxicity ECHCG. In outline:
as §1

In assay [3] the test system is Digitaria sanguinalis (DIGSA). Briefly: Test 2 glasshouse assay (IF50 formulation, X-77), pre-emergence herbicidal activity. The settings on record: 480 h, 250 g/ha, 20DAA, read-out: Percentage phytotoxicity DIGSA. As for the experimental part: (§2) Seeds of a variety of monocotyledonous and dicotyledonous test plants are sown in standard soil in pots. The plants are cultivated for one day (for pre-emergence) or for about 12 days (for post-emergence) under controlled conditions in a glasshouse (warm climate species at 24/18° C., cool climate species at 20/16° C., both at day/night; 16 hours light; 65% humidity).
(§3) An “instant formulation”, known as the “IF50”, containing 50 g/liter (i.e. 5% w/v) of the “technical” (i.e. unformulated) active ingredient is prepared by dissolving the active ingredient in a mixture of organic solvents and emulsifier, details of which are provided in the Table below. This IF50 is then mixed with a small, variable amount of acetone to aid dissolution, before addition of a 0.2% v/v aqueous solution of the adjuvant X-77 (which is a mixture of alkyl aryl polyoxyethylene glycols and free fatty acids in isopropanol, CAS Registry number 11097-66-8), as the aqueous diluent, to form an aqueous spray solution which contains a predetermined concentration of the active ingredient (which varies depending on the application rate of the active ingredient to the plants) and 0.2% v/v of the adjuvant X-77. This aqueous spray solution is then sprayed onto the plants, after one day's cultivation (for pre-emergence), or after about 12 days' cultivation (range=10-13 days) (for post-emergence).
(§4) The test plants are then grown on, in a glasshouse (greenhouse) under controlled conditions (warm climate species at 24/18° C., cool climate species at 20/16° C., both at day/night; 16 hours light; 65% humidity) and are watered twice daily. 15 days after application of the test herbicide (15DAA) (for post-emergence), and 20 days after application of the test herbicide (20DAA) (for pre-emergence), the test plants are evaluated visually, and an assessed percentage phytotoxicity score is given for each herbicidal application on each plant species (with 100%=total damage to plant; 0%=no damage to plant).
(§5) Warm climate (“warm season”) grassy monocotyledonous weeds: Setaria faberi (SETFA), Panicum miliaceum (PANMI), Sorghum vulgare Pers. (SORVU) (or Sorghum bicolor (L) Moench ssp. Bicolor), Digitaria sanguinalis (DIGSA), Echinochloa crus-galli (ECHCG), and Brachiaria plantaginea (BRAPL).

Assay [4] concerns Sorghum vulgare Pers. (SORVU). The description is as above. The settings on record: Sorghum bicolor, 480 h, 250 g/ha, 20DAA, read-out: Percentage phytotoxicity SORVU. As for the experimental part: as §2, §3, §4, §5
The test system of assay [5] is Beta vulgaris (BEAVA, sugarbeet). Briefly: Test 2 glasshouse assay (IF50 formulation, X-77), post-emergence herbicidal activity. The note with it: 360 h, 15 DAA, visual score, read-out: Post-emergence herbicidal activity (percentage phytotoxicity) BEAVA; for plant injury at 30 g/ha: application rate 30 g/ha; for plant injury at 250 g/ha: application rate 250 g/ha. The procedure: as §2, §3, §4
(§6) Cool climate crop plants: Triticum aestivum (TRZAW, winter wheat), Brassica napus (BRSNN, rape, also called oilseed rape or rapeseed), Beta vulgaris (BEAVA, sugarbeet). Warm climate crop plants: Glycine max (GLXMA, soybean).

Assay [6] relates to Brassica napus (BRSNN, rape). The description is as above. The settings on record: 360 h, 15 DAA, visual score, read-out: Post-emergence herbicidal activity (percentage phytotoxicity) BRSNN; for plant injury at 30 g/ha: application rate 30 g/ha; for plant injury at 250 g/ha: application rate 250 g/ha. The procedure:
as §2, §3, §4, §6

For assay [7], the system named is Glycine max (GLXMA, soybean). Described as above. The settings on record: 360 h, 15 DAA, visual score, read-out: Post-emergence herbicidal activity (percentage phytotoxicity) GLXMA; for plant injury at 30 g/ha: application rate 30 g/ha; for plant injury at 250 g/ha: application rate 250 g/ha. The procedure: as §2, §3, §4, §6
For assay [8], the system named is Triticum aestivum (TRZAW, winter wheat). The description is as above. The settings on record: 360 h, 15 DAA, visual score, read-out: Post-emergence herbicidal activity (percentage phytotoxicity) TRZAW; for plant injury at 30 g/ha: application rate 30 g/ha; for plant injury at 250 g/ha: application rate 250 g/ha. The procedure:
as §2, §3, §4, §6

Assay [9] relates to Alopecurus myosuroides (ALOMY). The assay is described as above. The note with it: 360 h, 15 DAA, visual score, read-out: Post-emergence herbicidal activity (percentage phytotoxicity) ALOMY; for pest or weed control at 30 g/ha: application rate 30 g/ha; for pest or weed control at 250 g/ha: application rate 250 g/ha. As for the experimental part:
as §2, §3, §4
(§7) Cool climate (“cool season”) grassy monocotyledonous weeds: Alopecurus myosuroides (ALOMY), Avena fatua (AVEFA), Lolium perenne (LOLPE).

Another assay concerns Avena fatua (AVEFA). The description is as above. The note with it: 360 h, 15 DAA, visual score, read-out: Post-emergence herbicidal activity (percentage phytotoxicity) AVEFA; for pest or weed control at 30 g/ha: application rate 30 g/ha; for pest or weed control at 250 g/ha: application rate 250 g/ha. As for the experimental part: as §2, §3, §4, §7
For the next assay, the system named is Lolium perenne (LOLPE). The assay is described as above. The note with it: 360 h, 15 DAA, visual score, read-out: Post-emergence herbicidal activity (percentage phytotoxicity) LOLPE; for pest or weed control at 30 g/ha: application rate 30 g/ha; for pest or weed control at 250 g/ha: application rate 250 g/ha. The procedure:
as §2, §3, §4, §7

The mark [10] stands for this setting: post-emergence (Example 1B Table 2).
The mark [11] stands for this setting: post-emergence (Example 1B Table 1).

Read-outs that look alike come from different tables or passages of the source.

As for `C#CCC1CC(=O)C(c2c(CC)cc(C)cc2CC)C1=O` (stereo not shown) [Compound A25, 2-(2,6-diethyl-4-methyl-phenyl)-4-(prop-2-ynyl)-cyclopentane-1,3-dione], the pest or weed control at 62.5 g/ha came out at 90% in [1] (setting [10]) and 100% in assay [2] (setting [10]). Further, the pest or weed control at 250 g/ha was determined as 100% in assay [1] (setting [10]), 100% in assay [2] (setting [10]), 100% in [3] and 90% in assay [4]. In addition, the plant injury at 30 g/ha turned out to be 0% in [5], 0% in assay [6], 0% in assay [7] and 10% in assay [8]. Also, the plant injury at 125 g/ha came to 0% in assay [5] (application rate 125 g/ha), 20% in [6] (application rate 125 g/ha), 0% in assay [7] (application rate 125 g/ha) and 60% in assay [8] (application rate 125 g/ha). Further, the pest or weed control at 30 g/ha in assay [9] amounted to 50%; in the assay on Avena fatua (AVEFA), 80%; in the assay with Lolium perenne (LOLPE), 90%. Also, the pest or weed control at 125 g/ha was 80% in [9] (application rate 125 g/ha), 100% in the assay with Avena fatua (AVEFA) (application rate 125 g/ha) and 100% with Lolium perenne (LOLPE) (application rate 125 g/ha).

For `C#CCC1CC(=O)C(c2c(Cl)cc(-c3ccc(Cl)cn3)cc2OC)C1=O` (stereo not shown) [Compound A10], the pest or weed control at 30 g/ha in [1] (setting [11]) is 90%; in assay [2] (setting [11]), 100%; in assay [9], 50%; with Avena fatua (AVEFA), 60%; in the assay with Lolium perenne (LOLPE) it was 30%. The pest or weed control at 250 g/ha in assay [1] (setting [11]), in assay [1] (setting [10]), in [2] (setting [11]), in [2] (setting [10]), in [3] and in [4] was 100% each time. The pest or weed control at 250 g/ha in assay [9] came out at 100%; with Avena fatua (AVEFA), 100%; with Lolium perenne (LOLPE), 90%. In addition, the pest or weed control at 62.5 g/ha in [1] (setting [10]) and in [2] (setting [10]) was 100% in each case. The plant injury at 30 g/ha in assay [5] was 60%; in assay [6], 80%; in assay [7] it was 40%; in assay [8], 70%. For the same molecule, the plant injury at 250 g/ha amounted to 80% in [5], 80% in assay [6], 70% in [7] and 80% in [8].

For `C#CCC1CC(=O)C(c2c(Cl)cc(-c3ccc(Cl)cc3)cc2OC)C1=O` (stereo not shown) [Compound A11, 2-[2-chloro-4-(4-chlorophenyl)-6-methoxyphenyl]-4-prop-2-ynylcyclopentane-1,3-dione], the pest or weed control at 30 g/ha amounted to 70% in assay [1] (setting [11]); 100% in assay [2] (setting [11]); 30% in assay [9]; 20% with Avena fatua (AVEFA); 30% in the assay on Lolium perenne (LOLPE). Moreover, the pest or weed control at 250 g/ha in [1] (setting [11]) amounted to 100%; in assay [2] (setting [11]), 100%; in [3] it was 90%; in [4], 80%; in [9], 70%; with Avena fatua (AVEFA), 70%. In addition, the pest or weed control at 250 g/ha in the assay on Lolium perenne (LOLPE) was determined as 40%. Moreover, the plant injury at 30 g/ha stood at 20% in assay [5], 30% in assay [6], 0% in [7] and 60% in [8]. The plant injury at 250 g/ha in assay [5] is 70%; in assay [6], 70%; in [7], 20%; in [8], 90%.
